# From patent US9801872B2, “Pyridinyl and fused pyridinyl triazolone derivatives” (Takeda Pharmaceutical Company Limited, priority 2013, dated 2017)
# Target: human BTK (Homo sapiens (Human), UniProt Q06187)
# Assay: BTK inhibition: BTK-mediated phosphorylation of FAM-labeled substrate 5-FAM-[…]-NH2 (Caliper LC-3000)
# Format: biochemical
# Settings: read-out: BTK Inhibition (pIC50) (converted)
# Excerpt: The activity of compounds as BTK inhibitors may be determined by a variety of methods, including in vitro and in vivo methods.
# This construct engineers an in-frame translational fusion with the Glutathione-S-Transferase (GST) protein for use in affinity purification. The fusion protein derived from this construct contains a protease recognition sequence to liberate the BTK from the GST affinity tag. High-titer baculoviral stocks, generated using the Bac-to-Bac® system (Invitrogen), are used to express the recombinant protein in Spodoptera frugiperda Sf9 cells in 10 L Wave bags. Recombinant proteins are isolated from cellular extracts by passage over Glutathione Sepharose 4B (GE Healthcare) and the BTK moiety is released from the GST affinity tag by treatment with PreScission protease. The BTK recombinant protein is further purified by size exclusion chromatography (HiLoad 16/60 Superdex 200, GE Healthcare) in a buffer containing 20 mM Hepes (pH 7.4), 50 mM NaCl, 10 mM MgCl2, 0.25 mM TCEP and 0.1 mM EDTA. The purity of the fractions is assessed by SDS PAGE and the peak protein fractions are pooled and concentrated using Amicon Ultra-15 Centrifugal Filter Devices (Millipore).
# The inhibitory properties of compounds relative to BTK is determined using a black 384-well-plate format in a buffer which contains 50 mM Hepes, 10 mM NaCl, 10 mM MgCl2, 0.2 mM EDTA, 0.01% Brij35®, 1 mM DTT, and 0.1 mg/mL BSA at pH 7.3. The test compound is prepared in DMSO using 2-fold serial dilutions for 11 data points, which are added to the buffer so that each dilution contains 3% DMSO. […] The reaction mixtures are incubated at room temperature for 60 minutes and then quenched by adding 25 μL of 50 mM EDTA. To quantify the fluorescent-labeled substrate and product following reaction, the test plate is loaded on a Caliper LC-3000, which measures percent of conversion by microfluidic-based separation.
# The compounds were tested in accordance with the assay described on page 42 of the specification.
# Sequence of human BTK (Q06187 382-659): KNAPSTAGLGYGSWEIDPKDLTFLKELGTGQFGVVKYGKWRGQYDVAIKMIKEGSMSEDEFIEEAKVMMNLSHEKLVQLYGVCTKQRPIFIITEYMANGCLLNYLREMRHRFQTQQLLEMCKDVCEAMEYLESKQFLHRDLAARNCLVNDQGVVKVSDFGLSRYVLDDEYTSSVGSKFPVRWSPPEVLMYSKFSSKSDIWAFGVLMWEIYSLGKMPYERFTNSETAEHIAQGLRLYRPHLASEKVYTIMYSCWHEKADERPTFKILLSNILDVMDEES
row,Structure (SMILES),IC50
1,"C=CC(=O)N1C[C@H](Oc2nc(-c3n[nH]c(=O)[nH]3)cc3ccccc23)[C@@H](C)C1 (racemic) [Example 19, 3-(1-(((3R,4S)-1-acryloyl-4-methylpyrrolidin-3-yl)oxy)isoquinolin-3-yl)-1H-1,2,4-triazol-5(4H)-one and 3-(1-(((3S,4R)-1-acryloyl-4-methylpyrrolidin-3-yl)oxy)isoquinolin-3-yl)-1H-1,2,4-triazol-5(4H)-one (mixture of enantiomers)]",< 6.31 nM

# Same assay, conditions: residues 382 to 659 of human BTK; 60 minutes at room temperature; pIC50 = -log(IC50), IC50 molar
row,Structure (SMILES),BTK Inhibition (pIC50)
1,"C=CC(=O)N1C[C@@H](C)[C@H](Oc2nc(-c3n[nH]c(=O)[nH]3)cc3ccccc23)C1 [Example 21, 3-(1-(((3S,4R)-1-acryloyl-4-methylpyrrolidin-3-yl)oxy)isoquinolin-3-yl)-1H-1,2,4-triazol-5(4H)-one]",6.9
2,"C=CC(=O)N1CC[C@H](OCc2nc(-c3n[nH]c(=O)[nH]3)cc3ccccc23)C1 [Example 13, (S)-3-(1-(((1-acryloylpyrrolidin-3-yl)oxy)methyl)isoquinolin-3-yl)-1H-1,2,4-triazol-5(4H)-one]",>8.0
3,"C=CC(=O)N1CC[C@H](Nc2nc(-c3n[nH]c(=O)[nH]3)cc3ccccc23)C1 [Example 8, (S)-3-(1-((1-acryloylpyrrolidin-3-yl)amino)isoquinolin-3-yl)-1H-1,2,4-triazol-5(4H)-one]",>8.6
4,"C=C(C)C(=O)N1CC[C@@H](Oc2nc(-c3n[nH]c(=O)[nH]3)cc3ccccc23)C1 [Example 1, (R)-3-(1-((1-methacryloylpyrrolidin-3-yl)oxy)isoquinolin-3-yl)-1H-1,2,4-triazol-5(4H)-one]",6.7
5,"C=C(C)C(=O)N1CC[C@H](Nc2nc(-c3n[nH]c(=O)[nH]3)cc3ccccc23)C1 [Example 10, (S)-3-(1-((1-methacryloylpyrrolidin-3-yl)amino)isoquinolin-3-yl)-1H-1,2,4-triazol-5(4H)-one]",7.5
6,"C=CC(=O)N1CC[C@H](Nc2nc(-c3n[nH]c(=O)[nH]3)cc3cccnc23)C1 [Example 17, (S)-3-(8-((1-acryloylpyrrolidin-3-yl)amino)-1,7-naphthyridin-6-yl)-1H-1,2,4-triazol-5(4H)-one]",>8.6
7,"C=CC(=O)NC1CCN(c2nc(-c3n[nH]c(=O)[nH]3)cc3ccccc23)C1 (centres unmarked) [Example 4, N-(1-(3-(5-oxo-4,5-dihydro-1H-1,2,4-triazol-3-yl)isoquinolin-1-yl)pyrrolidin-3-yl)acrylamide]",>8.1
8,"C/C=C/C(=O)N1CC[C@H](Nc2nc(-c3n[nH]c(=O)[nH]3)cc3ccccc23)C1 [Example 15, (S,E)-3-(1-((1-(but-2-enoyl)pyrrolidin-3-yl)amino)isoquinolin-3-yl)-1H-1,2,4-triazol-5(4H)-one]",7.6
9,"C=C(C)C(=O)N1CC[C@H](Oc2nc(-c3n[nH]c(=O)[nH]3)cc3ccccc23)C1 [Example 12, (S)-3-(1-((1-methacryloylpyrrolidin-3-yl)oxy)isoquinolin-3-yl)-1H-1,2,4-triazol-5(4H)-one]",6.9
10,"C=CC(=O)N1CC[C@H](N(C)c2nc(-c3n[nH]c(=O)[nH]3)cc3ccccc23)C1 [Example 11, (S)-3-(1-((1-acryloylpyrrolidin-3-yl)(methyl)amino)isoquinolin-3-yl)-1H-1,2,4-triazol-5(4H)-one]",8.5
11,"C=CC(=O)N1CCC[C@H]1COc1nc(-c2n[nH]c(=O)[nH]2)cc2ccccc12 [Example 7, (S)-3-(1-((1-acryloylpyrrolidin-2-yl)methoxy)isoquinolin-3-yl)-1H-1,2,4-triazol-5(4H)-one]",8.0
12,"C=CC(=O)N1CC[C@H](Oc2nc(-c3n[nH]c(=O)[nH]3)cc3ccccc23)C1 [Example 5, (S)-3-(1-((1-acryloylpyrrolidin-3-yl)oxy)isoquinolin-3-yl)-1H-1,2,4-triazol-5(4H)-one]",>8.7
13,"C=CC(=O)N1CC[C@H](Nc2nc(-c3n[nH]c(=O)[nH]3)cc3cccc(F)c23)C1 [Example 23, (S)-3-(1-((1-acryloylpyrrolidin-3-yl)amino)-8-fluoroisoquinolin-3-yl)-1H-1,2,4-triazol-5(4H)-one]",>8.9
14,"C/C=C/C(=O)N1CC[C@@H](Oc2nc(-c3n[nH]c(=O)[nH]3)cc3ccccc23)C1 [Example 3, (R,E)-3-(1-((1-(but-2-enoyl)pyrrolidin-3-yl)oxy)isoquinolin-3-yl)-1H-1,2,4-triazol-5(4H)-one]",6.5
15,"C=CC(=O)N1CCC[C@H]1CNc1nc(-c2n[nH]c(=O)[nH]2)cc2ccccc12 [Example 6, (S)-3-(1-(((1-acryloylpyrrolidin-2-yl)methyl)amino)isoquinolin-3-yl)-1H-1,2,4-triazol-5(4H)-one]",8.0
16,"C=CC(=O)N1CC[C@@H](Oc2nc(-c3n[nH]c(=O)[nH]3)cc3ccccc23)C1 [Example 2, (R)-3-(1-((1-acryloylpyrrolidin-3-yl)oxy)isoquinolin-3-yl)-1H-1,2,4-triazol-5(4H)-one]",7.1
17,"C=CC(=O)N1CC[C@H](Oc2nc(-c3n[nH]c(=O)[nH]3)cc3cccnc23)C1 [Example 16, (S)-3-(8-((1-acryloylpyrrolidin-3-yl)oxy)-1,7-naphthyridin-6-yl)-1H-1,2,4-triazol-5(4H)-one]",>8.5
18,"C=CC(=O)N1CC[C@H](Oc2nc(-c3n[nH]c(=O)[nH]3)cc3ccc(F)cc23)C1 [Example 18, (S)-3-(1-((1-acryloylpyrrolidin-3-yl)oxy)-7-fluoroisoquinolin-3-yl)-1H-1,2,4-triazol-5(4H)-one]",>8.2
19,"C=CC(=O)N1C[C@H](Oc2nc(-c3n[nH]c(=O)[nH]3)cc3ccccc23)[C@@H](C)C1 [Example 20, 3-(1-(((3R,4S)-1-acryloyl-4-methylpyrrolidin-3-yl)oxy)isoquinolin-3-yl)-1H-1,2,4-triazol-5(4H)-one]",>8.6

# The remaining lines, values ahead:
row,BTK Inhibition (pIC50),Structure (SMILES)
1,>8.2,"O=C(CCl)N1CC[C@H](Oc2nc(-c3n[nH]c(=O)[nH]3)cc3ccccc23)C1 [Example 33, (S)-5-(1-((1-(2-chloroacetyl)pyrrolidin-3-yl)oxy)isoquinolin-3-yl)-2,4-dihydro-3H-1,2,4-triazol-3-one]"
2,7.5,"C=CC(=O)N1CCC[C@H](Oc2nc(-c3n[nH]c(=O)[nH]3)cc3ccccc23)C1 [Example 35, (S)-5-(1-((1-acryloylpiperidin-3-yl)oxy)isoquinolin-3-yl)-2,4-dihydro-3H-1,2,4-triazol-3-one]"
3,8.3,"C=CC(=O)N1CC[C@H](Oc2nc(-c3n[nH]c(=O)[nH]3)ccc2C)C1 [Example 32, (S)-3-(6-((1-acryloylpyrrolidin-3-yl)oxy)-5-methylpyridin-2-yl)-1H-1,2,4-triazol-5(4H)-one]"
4,7.2,"C=CC(=O)N1CC[C@H](Oc2cccc(-c3n[nH]c(=O)[nH]3)n2)C1 [Example 31, (S)-3-(6-((1-acryloylpyrrolidin-3-yl)oxy)pyridin-2-yl)-1H-1,2,4-triazol-5(4H)-one]"
5,>8.6,"C=CC(=O)N1CC[C@H](Nc2nc(-c3n[nH]c(=O)[nH]3)cc3cccc(OC)c23)C1 [Example 29, (S)-3-(1-((1-acryloylpyrrolidin-3-yl)amino)-8-methoxyisoquinolin-3-yl)-1H-1,2,4-triazol-5(4H)-one]"
6,>8.6,"C=CC(=O)N1CC[C@H](Oc2cc(C)cc(-c3n[nH]c(=O)[nH]3)n2)C1 [Example 30, (S)-3-(6-((1-acryloylpyrrolidin-3-yl)oxy)-4-methylpyridin-2-yl)-1H-1,2,4-triazol-5(4H)-one]"
7,>8.9,"C=CC(=O)N1CC[C@H](Oc2nc(-c3n[nH]c(=O)[nH]3)cc3cccc(Cl)c23)C1 [Example 27, (S)-3-(1-((1-acryloylpyrrolidin-3-yl)oxy)-8-chloroisoquinolin-3-yl) -1H-1,2,4-triazol-5(4H)-one]"
8,>8.6,"C=CC(=O)N1CC[C@H](Nc2nc(-c3n[nH]c(=O)[nH]3)cc3ccc(Cl)cc23)C1 [Example 26, (S)-3-(1-((1-acryloylpyrrolidin-3-yl)amino)-7-chloroisoquinolin-3-yl)-1H-1,2,4-triazol-5 (4H)-one]"
9,>8.6,"C=CC(=O)N1CC[C@H](Nc2nc(-c3n[nH]c(=O)[nH]3)cc3ccc(F)cc23)C1 [Example 25, (S)-3-(1-((1-acryloylpyrrolidin-3-yl)amino)-7-fluoroisoquinolin-3-yl)-1H-1,2,4-triazol-5(4H)-one]"
